# Experimental data as given in ChEMBL document CHEMBL1255353, “Antistreptococcal activity of AR-709 compared to that of other agents” (2008).
# How the values were obtained:
# Type in all cases: functional
# Streptococcus pneumoniae [1] = experiment: Antimicrobial activity against quinolone-resistant Streptococcus pneumoniae by agar dilution method in presence of […] clavulanic acid
# Streptococcus pneumoniae [2] = experiment: Antimicrobial activity against penicillin-resistant Streptococcus pneumoniae by agar dilution method in presence of […] clavulanic acid
# Streptococcus pneumoniae [3] = experiment: Antimicrobial activity against quinolone-susceptible Streptococcus pneumoniae by agar dilution method in presence of […] clavulanic acid
# Streptococcus pneumoniae [4] = experiment: Antimicrobial activity against trimethoprim-sulfamethoxazole-resistant Streptococcus pneumoniae by agar dilution method in presence of […] clavulanic acid
# Streptococcus pneumoniae [5] = experiment: Antimicrobial activity against macrolide-resistant Streptococcus pneumoniae by agar dilution method in presence of […] clavulanic acid
# Streptococcus pneumoniae [6] = experiment: Antimicrobial activity against trimethoprim-sulfamethoxazole-susceptible Streptococcus pneumoniae by agar dilution method in presence of […] clavulanic acid
# [7] = tested on: Streptococcus sp. 'group A'; experiment: Antimicrobial activity against macrolide-susceptible Streptococcus sp. 'group A' by agar dilution method in presence of […] clavulanic acid
# Streptococcus pneumoniae [8] = experiment: Antimicrobial activity against macrolide-susceptible Streptococcus pneumoniae by agar dilution method in presence of […] clavulanic acid
# Streptococcus pneumoniae [9] = experiment: Antimicrobial activity against penicillin-intermediate Streptococcus pneumoniae by agar dilution method in presence of […] clavulanic acid
# Streptococcus pneumoniae [10] = experiment: Antimicrobial activity against penicillin-susceptible Streptococcus pneumoniae by agar dilution method in presence of […] clavulanic acid
# Streptococcus pneumoniae [11] = experiment: Antimicrobial activity against penicillin-resistant Streptococcus pneumoniae by agar dilution method
# [12] = tested on: Streptococcus sp. 'group A'; experiment: Antimicrobial activity against macrolide-resistant Streptococcus sp. 'group A' by agar dilution method
# Streptococcus pneumoniae [13] = experiment: Antimicrobial activity against macrolide-resistant Streptococcus pneumoniae by agar dilution method
# Streptococcus pneumoniae [14] = experiment: Antimicrobial activity against quinolone-resistant Streptococcus pneumoniae by agar dilution method
# Streptococcus pneumoniae [15] = experiment: Antimicrobial activity against penicillin-susceptible Streptococcus pneumoniae by agar dilution method
# Streptococcus pneumoniae [16] = experiment: Antimicrobial activity against quinolone-susceptible Streptococcus pneumoniae by agar dilution method
# [17] = tested on: Streptococcus sp. 'group A'; experiment: Antimicrobial activity against macrolide-susceptible Streptococcus sp. 'group A' by agar dilution method
# Streptococcus pneumoniae [18] = experiment: Antimicrobial activity against trimethoprim-sulfamethoxazole-susceptible Streptococcus pneumoniae by agar dilution method
# Streptococcus pneumoniae [19] = experiment: Antimicrobial activity against trimethoprim-sulfamethoxazole-resistant Streptococcus pneumoniae by agar dilution method
# Streptococcus pneumoniae [20] = experiment: Antimicrobial activity against penicillin-intermediate Streptococcus pneumoniae by agar dilution method
# Streptococcus pneumoniae [21] = experiment: Antimicrobial activity against macrolide-susceptible Streptococcus pneumoniae by agar dilution method
# Streptococcus pneumoniae [22] = experiment: Antimicrobial activity against Streptococcus pneumoniae assessed as time required to show antibiotic effect
structure (smiles),measurement,setting,value
CC1(C)S[C@@H]2[C@H](NC(=O)[C@H](N)c3ccc(O)cc3)C(=O)N2[C@H]1C(=O)O [AMOXICILLIN],MIC50,Streptococcus pneumoniae [1],0.5 µg/mL
same,MIC90,Streptococcus pneumoniae [1],2 µg/mL
same,MIC50,Streptococcus pneumoniae [2],2 µg/mL
same,MIC90,Streptococcus pneumoniae [2],4 µg/mL
same,MIC50,Streptococcus pneumoniae [3],0.12 µg/mL
same,MIC90,Streptococcus pneumoniae [3],2 µg/mL
same,MIC50,Streptococcus pneumoniae [4],0.5 µg/mL
same,MIC90,Streptococcus pneumoniae [4],4 µg/mL
same,MIC50,Streptococcus pneumoniae [5],0.12 µg/mL
same,MIC90,Streptococcus pneumoniae [5],4 µg/mL
same,MIC50,Streptococcus pneumoniae [6],0.03 µg/mL
same,MIC90,Streptococcus pneumoniae [6],0.12 µg/mL
same,MIC,[7],≤ 0.016 µg/mL
same,MIC50,[7],≤ 0.016 µg/mL
same,MIC90,[7],≤ 0.016 µg/mL
same,MIC50,Streptococcus pneumoniae [8],0.06 µg/mL
same,MIC90,Streptococcus pneumoniae [8],1 µg/mL
same,MIC50,Streptococcus pneumoniae [9],0.12 µg/mL
same,MIC90,Streptococcus pneumoniae [9],1 µg/mL
same,MIC,Streptococcus pneumoniae [10],≤ 0.016 µg/mL
same,MIC50,Streptococcus pneumoniae [10],≤ 0.016 µg/mL
same,MIC90,Streptococcus pneumoniae [10],0.03 µg/mL
CO/N=C(\C(=O)N[C@@H]1C(=O)N2C(C(=O)O)=C(COC(N)=O)CS[C@H]12)c1ccco1 [CEFUROXIME],MIC50,Streptococcus pneumoniae [11],4 µg/mL
same,MIC90,Streptococcus pneumoniae [11],16 µg/mL
same,MIC,[12],0.016 µg/mL
same,MIC50,[12],0.016 µg/mL
same,MIC90,[12],0.03 µg/mL
same,MIC50,Streptococcus pneumoniae [13],0.5 µg/mL
same,MIC90,Streptococcus pneumoniae [13],8 µg/mL
same,MIC50,Streptococcus pneumoniae [14],2 µg/mL
same,MIC90,Streptococcus pneumoniae [14],8 µg/mL
same,MIC50,Streptococcus pneumoniae [15],0.03 µg/mL
same,MIC90,Streptococcus pneumoniae [15],0.12 µg/mL
same,MIC50,Streptococcus pneumoniae [16],0.25 µg/mL
same,MIC90,Streptococcus pneumoniae [16],4 µg/mL
same,MIC,[17],0.016 µg/mL
same,MIC50,[17],0.016 µg/mL
same,MIC90,[17],0.016 µg/mL
same,MIC50,Streptococcus pneumoniae [18],0.03 µg/mL
same,MIC90,Streptococcus pneumoniae [18],0.5 µg/mL
same,MIC50,Streptococcus pneumoniae [19],2 µg/mL
same,MIC90,Streptococcus pneumoniae [19],8 µg/mL
same,MIC50,Streptococcus pneumoniae [20],0.25 µg/mL
same,MIC90,Streptococcus pneumoniae [20],4 µg/mL
same,MIC50,Streptococcus pneumoniae [21],0.25 µg/mL
same,MIC90,Streptococcus pneumoniae [21],4 µg/mL
CC1(C)S[C@@H]2[C@H](NC(=O)Cc3ccccc3)C(=O)N2[C@H]1C(=O)O [PENICILLIN G],MIC,Streptococcus pneumoniae [11],2 µg/mL
same,MIC50,Streptococcus pneumoniae [11],2 µg/mL
same,MIC90,Streptococcus pneumoniae [11],4 µg/mL
same,MIC50,Streptococcus pneumoniae [13],0.25 µg/mL
same,MIC90,Streptococcus pneumoniae [13],4 µg/mL
same,MIC50,Streptococcus pneumoniae [14],0.5 µg/mL
same,MIC90,Streptococcus pneumoniae [14],2 µg/mL
same,MIC50,Streptococcus pneumoniae [15],0.016 µg/mL
same,MIC90,Streptococcus pneumoniae [15],0.06 µg/mL
same,MIC,Streptococcus pneumoniae [16],0.12 µg/mL
same,MIC50,Streptococcus pneumoniae [16],0.12 µg/mL
same,MIC90,Streptococcus pneumoniae [16],2 µg/mL
same,MIC50,Streptococcus pneumoniae [18],0.03 µg/mL
same,MIC90,Streptococcus pneumoniae [18],0.25 µg/mL
same,MIC50,Streptococcus pneumoniae [19],1 µg/mL
same,MIC90,Streptococcus pneumoniae [19],4 µg/mL
same,MIC50,Streptococcus pneumoniae [20],0.25 µg/mL
same,MIC90,Streptococcus pneumoniae [20],1 µg/mL
same,MIC50,Streptococcus pneumoniae [21],0.12 µg/mL
same,MIC90,Streptococcus pneumoniae [21],2 µg/mL
COc1cc(Cc2cnc(N)nc2N)c2cc(Cc3c(C(=O)N(C)C)[nH]c4ccc(Cl)cc34)oc2c1OC,MIC50,Streptococcus pneumoniae [11],0.25 µg/mL
same,MIC90,Streptococcus pneumoniae [11],1 µg/mL
same,MIC50,[12],0.016 µg/mL
same,MIC90,[12],0.03 µg/mL
same,MIC50,Streptococcus pneumoniae [13],0.25 µg/mL
same,MIC90,Streptococcus pneumoniae [13],0.5 µg/mL
same,MIC50,Streptococcus pneumoniae [14],0.25 µg/mL
same,MIC90,Streptococcus pneumoniae [14],1 µg/mL
same,Time,Streptococcus pneumoniae [22],>=1.1 hr
same,MIC50,Streptococcus pneumoniae [15],0.06 µg/mL
same,MIC90,Streptococcus pneumoniae [15],0.25 µg/mL
same,MIC50,Streptococcus pneumoniae [16],0.12 µg/mL
same,MIC90,Streptococcus pneumoniae [16],0.5 µg/mL
same,MIC50,[17],0.06 µg/mL
same,MIC90,[17],0.06 µg/mL
same,MIC50,Streptococcus pneumoniae [18],0.06 µg/mL
same,MIC90,Streptococcus pneumoniae [18],0.12 µg/mL
same,MIC50,Streptococcus pneumoniae [19],0.25 µg/mL
same,MIC90,Streptococcus pneumoniae [19],0.5 µg/mL
same,MIC50,Streptococcus pneumoniae [20],0.25 µg/mL
same,MIC90,Streptococcus pneumoniae [20],0.5 µg/mL
same,MIC50,Streptococcus pneumoniae [21],0.12 µg/mL
same,MIC90,Streptococcus pneumoniae [21],0.5 µg/mL
O=C(O)c1cn(C2CC2)c2cc(N3CCNCC3)c(F)cc2c1=O [CIPROFLOXACIN],MIC50,[12],0.5 µg/mL
same,MIC90,[12],2 µg/mL
same,MIC50,Streptococcus pneumoniae [13],1 µg/mL
same,MIC90,Streptococcus pneumoniae [13],4 µg/mL
same,MIC50,Streptococcus pneumoniae [14],32 µg/mL
same,MIC90,Streptococcus pneumoniae [14],> 32 µg/mL
same,MIC50,Streptococcus pneumoniae [16],1 µg/mL
same,MIC90,Streptococcus pneumoniae [16],2 µg/mL
same,MIC,[17],0.5 µg/mL
same,MIC50,[17],0.5 µg/mL
same,MIC90,[17],1 µg/mL
same,MIC50,Streptococcus pneumoniae [19],1 µg/mL
same,MIC90,Streptococcus pneumoniae [19],4 µg/mL
same,MIC50,Streptococcus pneumoniae [20],1 µg/mL
same,MIC90,Streptococcus pneumoniae [20],4 µg/mL
CC[C@H]1OC(=O)[C@H](C)[C@@H](O[C@H]2C[C@@](C)(OC)[C@@H](O)[C@H](C)O2)[C@H](C)[C@@H](O[C@@H]2O[C@H](C)C[C@H](N(C)C)[C@H]2O)[C@](C)(O)C[C@@H](C)CN(C)[C@H](C)[C@@H](O)[C@]1(C)O [AZITHROMYCIN],MIC50,Streptococcus pneumoniae [11],8 µg/mL
same,MIC50,[12],> 64 µg/mL
same,MIC90,[12],> 64 µg/mL
same,MIC50,Streptococcus pneumoniae [13],> 64 µg/mL
same,MIC50,Streptococcus pneumoniae [14],0.12 µg/mL
same,MIC50,Streptococcus pneumoniae [15],0.12 µg/mL
same,MIC90,Streptococcus pneumoniae [15],> 64 µg/mL
same,MIC50,Streptococcus pneumoniae [16],4 µg/mL
same,MIC90,Streptococcus pneumoniae [16],> 64 µg/mL
same,MIC50,[17],0.12 µg/mL
same,MIC90,[17],0.25 µg/mL
same,MIC50,Streptococcus pneumoniae [18],0.12 µg/mL
same,MIC90,Streptococcus pneumoniae [18],> 64 µg/mL
same,MIC50,Streptococcus pneumoniae [19],8 µg/mL
same,MIC50,Streptococcus pneumoniae [20],0.12 µg/mL
same,MIC90,Streptococcus pneumoniae [20],> 64 µg/mL
same,MIC50,Streptococcus pneumoniae [21],0.12 µg/mL
same,MIC90,Streptococcus pneumoniae [21],0.12 µg/mL
C[C@H]1COc2c(N3CCN(C)CC3)c(F)cc3c(=O)c(C(=O)O)cn1c23.C[C@H]1COc2c(N3CCN(C)CC3)c(F)cc3c(=O)c(C(=O)O)cn1c23.O [LEVOFLOXACIN],MIC50,Streptococcus pneumoniae [11],1 µg/mL
same,MIC90,Streptococcus pneumoniae [11],4 µg/mL
same,MIC50,[12],0.5 µg/mL
same,MIC90,[12],1 µg/mL
same,MIC50,Streptococcus pneumoniae [13],1 µg/mL
same,MIC90,Streptococcus pneumoniae [13],2 µg/mL
same,MIC50,Streptococcus pneumoniae [14],16 µg/mL
same,MIC90,Streptococcus pneumoniae [14],16 µg/mL
same,MIC50,Streptococcus pneumoniae [15],1 µg/mL
same,MIC90,Streptococcus pneumoniae [15],8 µg/mL
same,MIC50,Streptococcus pneumoniae [16],1 µg/mL
same,MIC90,Streptococcus pneumoniae [16],1 µg/mL
same,MIC,[17],0.5 µg/mL
same,MIC50,[17],0.5 µg/mL
same,MIC90,[17],2 µg/mL
same,MIC50,Streptococcus pneumoniae [18],1 µg/mL
same,MIC90,Streptococcus pneumoniae [18],2 µg/mL
same,MIC50,Streptococcus pneumoniae [19],1 µg/mL
same,MIC90,Streptococcus pneumoniae [19],2 µg/mL
same,MIC50,Streptococcus pneumoniae [20],1 µg/mL
same,MIC90,Streptococcus pneumoniae [20],2 µg/mL
same,MIC50,Streptococcus pneumoniae [21],1 µg/mL
same,MIC90,Streptococcus pneumoniae [21],8 µg/mL
